According to patent publication US20080085889A1, “Amidomethyl-Substituted 1-(Carboxyalkyl) Cyclopentyl-Carbonylamino-Benzazepine-N-Acetic Acid Compounds, Process and Intermediate Products for Their Preparation and Pharmaceutical Compositions Containing Them” (SOLVAY PHARMACEUTICALS GmbH, priority 2003, published 2008):

Legend:
[1] = biological target: T1, soluble, human recombinant NEP (Homo sapiens, UniProt P08473); experiment: In-vitro investigation of the NEP inhibitory action (fluorescence-quenched Big-ET-1 analogue, HPLC); format: biochemical
T1 construct: soluble, human recombinant NEP; purchased Prof; Crine, University of Montreal, Canada
Description: 1. In-Vitro Investigation of the NEP Inhibitory Action of the Substances
In this test, the measure of the inhibitory activity of the substances which was determined was their IC50 value. The IC50 value of a test substance having enzyme-inhibitory activity is that concentration of the test substance at which 50% of the enzymatic activity of the NEP is blocked.
70 μl test buffer, 10 μl enzyme working solution and 10 μl test substance solution were mixed in an Eppendorf vessel and preincubated at 37° C. for 15 minutes (=min.). Then 10 μl substrate stock solution was added and the test batch was incubated for 60 minutes at 37° C. The enzymatic reaction was then ended by 5-minutes' heating to 95° C. After centrifugation (Heraeus Biofuge B, 3 min.), the liquid supernatant was investigated by HPLC in accordance with the following specifications.
The substrate was separated from cleavage products by means of reversed-phase HPLC (CC 125/4 Nucleosil 300/5 C18 RP column with CC 8/4 Nucleosil 100/5 C18 precolumn, from Macherey-Nagel, Düren, Germany). For this, 60 μl of the test mixture was injected into the HPLC sample injection point and the column was then eluted at a flow rate of 1 ml/min with the following gradient:
Mobile Phase B: 100% acetonitrile+0.5M H3PO4
All the peptides were detected by absorption at 214 nm and by fluorescence with an excitation wavelength of 328 nm and an emission wavelength of 393 nm.
Upon enzymatic cleavage of the peptide, the fluorophore (=Mca) and the quencher end up in different peptide fragments, which reduces the effectiveness of the quench. […] The increasing fluorescence signal (corresponds to the area, A) of the HPLC peak of the peptide with the non-quenched Mca fluorophore is used for the further calculations. This signal was compared for samples with (=Ainhib) and without (=Acontrol) test substance of Formula I, and the value “% inhibition” was calculated on the basis of the respective peak areas according to the following formula: % inhibition=100*(1−Ainhib/Acontrol)
All the samples were measured in duplicates and average values were calculated therefrom. A standard inhibitor (10 nM thiorphan) and a solvent control (0.1% DMSO) were likewise measured as quality controls on each run. In this test model the test substances of Formula I listed in the following Table 1 had the IC50 values given below: […]

[2] = biological target: T2, His6-tagged hSEP ectodomain (Homo sapiens, UniProt Q495T6); experiment: In vitro investigation of the hSEP-inhibitory action (fluorescence-quenched Big-ET-1 analogue, HPLC); format: biochemical
T2 construct: His6-tagged hSEP ectodomain; His6; purchased Innogenetics, Ghent, Belgium
T2 sequence (Q495T6 49-779 limits assumed): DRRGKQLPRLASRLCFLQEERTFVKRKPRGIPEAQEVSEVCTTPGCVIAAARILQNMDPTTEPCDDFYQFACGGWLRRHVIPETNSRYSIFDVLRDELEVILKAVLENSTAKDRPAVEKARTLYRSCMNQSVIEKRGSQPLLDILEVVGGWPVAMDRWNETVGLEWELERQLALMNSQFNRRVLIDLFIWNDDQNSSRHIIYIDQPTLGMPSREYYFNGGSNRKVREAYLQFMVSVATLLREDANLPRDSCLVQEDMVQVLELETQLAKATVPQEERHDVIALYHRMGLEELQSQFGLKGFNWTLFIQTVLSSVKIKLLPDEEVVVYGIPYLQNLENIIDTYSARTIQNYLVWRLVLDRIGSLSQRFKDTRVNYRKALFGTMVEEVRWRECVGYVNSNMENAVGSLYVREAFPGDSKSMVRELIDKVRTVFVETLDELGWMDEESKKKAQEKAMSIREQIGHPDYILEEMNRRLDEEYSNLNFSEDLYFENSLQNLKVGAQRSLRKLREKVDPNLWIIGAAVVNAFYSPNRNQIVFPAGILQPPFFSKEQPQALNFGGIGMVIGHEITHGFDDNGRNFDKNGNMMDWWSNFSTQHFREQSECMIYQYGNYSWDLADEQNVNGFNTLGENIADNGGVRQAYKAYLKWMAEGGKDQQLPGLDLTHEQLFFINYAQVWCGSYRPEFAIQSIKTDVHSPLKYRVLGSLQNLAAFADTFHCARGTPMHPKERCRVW
Description: 2. In Vitro Investigation of the hSEP-Inhibitory Action of the Substances
In this test, the measure of the inhibitory activity of the substances which was determined was their IC50 value. The IC50 value of a test substance having enzyme-inhibitory activity is that concentration of the test substance at which 50% of the enzymatic activity of the hSEP is blocked.
The test and the HPLC procedure were carried out analogously to the manner set forth above for determining the in vitro inhibitory action of the test substances on NEP. 10 nM phosphoramidon served as standard inhibitor in the HPLC procedure. In this test model the test substances of Formula I listed in the following Table 2 had the IC50 values given below: […]

[3] = test system: formation of ET-1 from Big-ET-1; experiment: In vivo inhibition of the Big-ET-1-induced blood pressure increase in anaesthetised rats, i.v. single dose; set-up: species or system Rats (Sprague-Dawley); details: Rattus norvegicus, iv, 10 μmol/kg, 5 min before 0.5 nmol/kg Big-ET-1, negative values indicate inhibition, read-out: % substance-related inhibition of the maximum Big-ET effect on SAP vs. control
From the text: 3. In Vivo Investigation of the Inhibitory Action of the Substances on the Formation of ET-1 from Big-ET-1 in Rats
ET-1 is an endogenous substance with strong vasoconstrictive effect. An increase in the ET-1 level results in an increase in blood pressure. Upon infusion of Big-ET-1, an increase in blood pressure takes place to the extent that ET-1 is produced therefrom by enzyme-catalysed cleavage of Big-ET-1. As a measurement of the enzyme-inhibiting action of the substances, their inhibitory action on the increase in blood pressure induced by infusion of Big-ET-1 was determined.
Rats (Sprague-Dawley, CRLD=Charles River) were anaesthetised with 1 ml/kg Rompun/Ketavet 1:1. A pressure transducer (Statham) was inserted into the carotid artery to measure blood pressure. One jugular vein was cannulated for administering the substance, and the other for administering Big-ET-1. After a 20-minute equilibration phase, the rats were administered the corresponding test substance of Formula I at a dose of as a rule 10 μmol/kg (if not stated otherwise), or a vehicle. Five minutes later, 0.5 nmol/kg Big-ET-1 was infused over a period of one minute. The systolic (SAP=systolic arterial pressure) and the diastolic (DAP=diastolic arterial pressure) blood pressure and the heart rate were each measured before administration of the substance, then immediately before administration of Big-ET and in each case every five minutes over a period of 30 minutes after Big-ET administration using the pressure transducer in known manner. The maximum Big-ET-induced increase in blood pressure and the maximum lowering of heart rate were calculated from the measured values as the difference between the value measured at the moment of maximum development of the Big-ET action (typically after 5 min.) and the value measured before Big-ET infusion. Furthermore, the integral of the blood pressure curve under the influence of Big-ET-1 was determined over 30 minutes (AUC=area under the curve).
The percentage inhibition of the maximum Big-ET-1 effect on the systolic arterial blood pressure (SAP) after i.v. administration of the test substances compared with administration of a vehicle is set forth in the following Table 3a:
Data given in table 3a as negative values indicate an inhibitory effect.

[4] = test system: maximal SAP response to Big-ET; experiment: In vivo i.v. potency (ID50) to inhibit maximal SAP response to Big-ET in anesthetized rats; set-up: species or system Rats (Sprague-Dawley); details: Rattus norvegicus, iv, dose at which the pressor effect of Big-ET was suppressed by 50%
Description: Rats (Sprague-Dawley, CRLD=Charles River) were anaesthetised with 1 ml/kg Rompun/Ketavet 1:1. A pressure transducer (Statham) was inserted into the carotid artery to measure blood pressure.
For intravenous testing, one jugular vein was cannulated for administering the substance, and the other for administering Big-ET-1. […] Five minutes later, 0.5 nmol/kg Big-ET-1 was infused over a period of one minute. SAP, DAP, and heart rate were measured before administration of the substance, then before administration of Big-ET, and subsequently every five minutes after Big-ET administration over a period of 30 minutes using the pressure transducer in known manner. The maximum Big-ET-induced increase in blood pressure was calculated from the measured values as the difference between the value measured at the moment of maximum development of the Big-ET action (typically after 5 min) and the value measured before Big-ET infusion. The dose at which the pressor effect of Big-ET was suppressed by 50% (ID50) was estimated from the inhibitory effects observed over the range of dosages tested (n>5 rats for each dose).
The intravenous potency of the test compounds of Formula I (given as ID50 values) to inhibit the maximal SAP response to Big ET in anesthetized rats is set forth in the following Table 3b: […]

[5] = test system: TUNEL positive cells in heart, liver and kidney; experiment: Adriamycin toxicity: determination of anti-apoptotic activity (TUNEL staining); format: in vivo, Wistar rats; details: adriamycin alone, 3 x 5 mg/kg i.p. (cumulative 15 mg/kg), vehicle minipump; day 5; ± SEM
Description: 2. Adriamycin Toxicity: Determination of Anti-Apoptotic Activity
Wistar rats, weighing 200-250 g, were anesthetized with chloral hydrate, 400 mg/kg, and Alzet osmotic minipumps (2 ML1), were implanted subcutaneously (=s.c.). The pumps had been filled with either vehicle or solution containing compounds of the invention at the appropriate concentration and primed prior to implantation. Animals subsequently received adriamycin at three equal daily doses of 5 mg/kg i.p. on days 1, 2 and 3. Rats were euthanized 5 days after the first injection of adriamycin and transcardially perfused with a solution containing 4% paraformaldehyde in phosphate buffer. The heart, liver and kidneys were subsequently removed and embedded in parafin.
TUNEL staining: For terminal deoxynucleotide transferase-mediated dUTP nick end-label (TUNEL) based histological analysis, organs were post-fixed for 5 days at 4° C. and paraffin-embedded. TUNEL staining was performed on 10 μm thick paraffin sections using the ApopTag Peroxidase kit (S 7100, Oncor Appligene, Heidelberg, Germany) according to the manufacturer's instructions. Briefly, after pretreatment with proteinase K and quenching of endogenous peroxidase, sections were incubated in equilibration buffer followed by working strength TdT enzyme (incorporating digoxigenin labeled dUTP nucleotides to free 3′-OH DNA termini), (1 hr, 37° C.). Sections were incubated in stop/wash buffer (30 min, 37° C.), then with anti-digoxigenin-peroxidase conjugate (30 min) followed by DAB substrate (Sigma, Deisenhofen, Germany) and lightly counterstained with methylgreen.
Wistar rats were administered adriamycin at the cumulative dose of 15 mg/kg i.p. The test substance of Example 4 was administered s.c. at the doses of 20, 50 or 100 mg/kg and day by means of Alzet osmotic minipumps over 5 days. Animals were euthanized and transcardially perfused 5 days after the first injection of adriamycin and the heart, kidney and liver were processed for TUNEL staining. Densities of TUNEL positive cells were determined as described in the methods. Results for each organ (heart, liver, kidney) were measured as mean densities of TUNEL positive cells ±SEM for the control groups and the different test groups (20, 50 or 100 mg/kg and day of test compound of Example 4) and listed in table 8 below.
Comparisons between groups were performed by means of Student's t test (**P<0.01; ***P<0.001 compared to vehicle treated rats).

T1 sequence (P08473 52-750 limits assumed): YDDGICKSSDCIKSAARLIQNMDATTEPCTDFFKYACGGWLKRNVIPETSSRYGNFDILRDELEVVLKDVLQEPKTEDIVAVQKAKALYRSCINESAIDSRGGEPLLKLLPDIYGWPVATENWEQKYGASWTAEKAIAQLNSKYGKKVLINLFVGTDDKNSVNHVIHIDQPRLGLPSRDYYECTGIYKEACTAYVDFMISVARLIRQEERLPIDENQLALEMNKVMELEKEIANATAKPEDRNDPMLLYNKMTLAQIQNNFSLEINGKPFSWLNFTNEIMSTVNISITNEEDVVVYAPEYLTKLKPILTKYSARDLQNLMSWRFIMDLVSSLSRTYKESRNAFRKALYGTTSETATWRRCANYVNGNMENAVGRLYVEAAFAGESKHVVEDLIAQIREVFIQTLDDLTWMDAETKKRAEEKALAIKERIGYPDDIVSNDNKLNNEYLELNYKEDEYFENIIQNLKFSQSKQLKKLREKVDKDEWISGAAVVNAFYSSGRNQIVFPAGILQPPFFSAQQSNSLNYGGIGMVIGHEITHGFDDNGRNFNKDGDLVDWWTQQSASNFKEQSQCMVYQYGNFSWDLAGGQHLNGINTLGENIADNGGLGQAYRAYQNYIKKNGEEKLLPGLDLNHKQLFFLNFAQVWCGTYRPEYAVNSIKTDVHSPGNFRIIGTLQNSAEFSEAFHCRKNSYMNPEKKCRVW

Row | SMILES | IC50 [1] | IC50 [2] | change in vivo at 10 µmol/kg [3] | ED50 [4] | TUNEL positive cells, Heart [5] | TUNEL positive cells, Kidney [5] | TUNEL positive cells, Liver [5]
1 | CCOC(=O)C(CC(=O)NCCCO)CC1(C(=O)N[C@H]2CCc3ccccc3N(CC(=O)O)C2=O)CCCC1 (stereo in doubt) [Example 8] |  |  | -113% | 0.2 µmol/kg |  |  | 
2 | COc1cccc2c1C(=O)c1c(O)c3c(c(O)c1C2=O)C[C@@](O)(C(=O)CO)C[C@@H]3O[C@H]1C[C@H](N)[C@H](O)[C@H](C)O1 [Adriamycin, adriamycin, reference compound] |  |  |  |  | 5.417 ± 0.146 cells/mm3 × 102 | 9.438 ± 0.198 cells/mm3 × 102 | 10.420 ± 0.275 cells/mm3 × 102
3 | COc1ccc(C(=O)CNC(=O)CC(CC2(C(=O)N[C@H]3CCc4ccccc4N(CC(=O)O)C3=O)CCCC2)C(=O)O)cc1 (mixture of isomers) [Example 20] | 12.9 nM | 36.3 nM | -67% |  |  |  | 
4 | CN(C)CCN(C)C(=O)CC(CC1(C(=O)NC2CCc3ccccc3N(CC(=O)O)C2=O)CCCC1)C(=O)O (centres unmarked) [Example 59, 2-{[1-({[1-(carboxymethyl)-2-oxo-2,3,4,5-tetrahydro-1H-1-benzazepin-3-yl]amino}carbonyl)cyclopentyl]methyl}-4-[[2-(dimethylamino)ethyl](methyl)amino]-4-oxobutanoic acid] | 12 nM | 4 nM | -98% |  |  |  | 
5 | COc1ccc(CNC(=O)CC(CC2(C(=O)N[C@H]3CCc4ccccc4N(CC(=O)O)C3=O)CCCC2)C(=O)O)cc1 (mixture of isomers) [Example 24] | 11.1 nM | 27 nM | -54% |  |  |  | 

Continued, in another order:

Row | IC50 [1] | IC50 [2] | SMILES | change in vivo at 10 µmol/kg [3] | ED50 [4] | TUNEL positive cells, Heart [5] | TUNEL positive cells, Kidney [5] | TUNEL positive cells, Liver [5]
6 | 10.6 nM | 17.3 nM | O=C(O)CN1C(=O)[C@@H](NC(=O)C2(CC(CC(=O)NCC3CC3)C(=O)O)CCCC2)CCc2ccccc21 (mixture of isomers) [Example 23] | -40% |  |  |  | 
7 | 20 nM | 15 nM | COCCNC(=O)CC(CC1(C(=O)N[C@H]2CCc3ccccc3N(CC(=O)O)C2=O)CCCC1)C(=O)O (mixture of isomers) [Example 16] | -45% |  |  |  | 
8 | 10 nM | 4 nM | CCN(CCCCN)C(=O)CC(CC1(C(=O)NC2CCc3ccccc3N(CC(=O)O)C2=O)CCCC1)C(=O)O (racemic) [Example 76, 4-[(4-aminobutyl)(ethyl)amino]-2-{[1-({[1-(carboxymethyl)-2-oxo-2,3,4,5-tetrahydro-1H-1-benzazepin-3-yl]amino}carbonyl)cyclopentyl]methyl}-4-oxobutanoic acid] | -93% |  |  |  | 
9 | < 1 nM | 24 nM | O=C(O)CN1C(=O)[C@@H](NC(=O)C2(CC(CC(=O)NC3CCCCNC3=O)C(=O)O)CCCC2)CCc2ccccc21 (mixture of isomers) [Example 17] | -46% |  |  |  | 
